Measurements from PMC6329299 (The pharmacogenomics journal, 2015).
Substitutions are numbered along the chain they refer to. Counter-ions that a name gives are not always drawn.

Key:
[1] = Hydrolysis by human intestine s9 fractions; type: in vitro ADME; settings: substrate 100 μM, 3 concentrations of HIS9
[2] = Hydrolysis by human kidney s9 fractions; type: in vitro ADME; settings: substrate 100 μM, 3 concentrations of HKS9
Hydrolysis = settings: for Vmax: HLS9, PBS pH 7.4, 37 °C; for Km: human, pooled human liver s9 fractions (HLS9), pH 7.4; for Hydrolysis to active metabolite by human liver s9 fractions: prodrug 100 μM, 3 concentrations of HLS9
wild type (WT) CES1 = molecular target: T1, wild type (WT) CES1 (Homo sapiens, UniProt P23141); settings: prodrug 100 μM, 3 concentrations of cell s9
T1 sequence (P23141 18-568 isoform P23141-2 limits assumed): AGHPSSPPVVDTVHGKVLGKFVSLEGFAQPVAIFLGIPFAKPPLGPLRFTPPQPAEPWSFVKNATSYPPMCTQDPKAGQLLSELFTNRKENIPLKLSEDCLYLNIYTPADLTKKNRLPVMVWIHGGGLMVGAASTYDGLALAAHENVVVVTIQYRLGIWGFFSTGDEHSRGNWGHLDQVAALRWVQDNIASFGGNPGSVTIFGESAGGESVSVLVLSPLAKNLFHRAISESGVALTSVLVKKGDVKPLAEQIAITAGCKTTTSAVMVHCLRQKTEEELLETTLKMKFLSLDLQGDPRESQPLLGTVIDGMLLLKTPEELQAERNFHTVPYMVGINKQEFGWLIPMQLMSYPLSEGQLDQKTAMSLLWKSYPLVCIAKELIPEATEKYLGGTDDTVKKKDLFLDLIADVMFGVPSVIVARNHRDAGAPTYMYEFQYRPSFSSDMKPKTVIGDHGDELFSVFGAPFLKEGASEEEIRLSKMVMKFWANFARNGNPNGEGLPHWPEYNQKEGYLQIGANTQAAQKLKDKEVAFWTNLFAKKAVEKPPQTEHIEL

CES1 variant G143E [3] = molecular target: T2, CES1 variant G143E (Homo sapiens, UniProt P23141, G142E); assay: Hydrolysis by s9 fractions of cells stably expressing the CES1 variant G143E; settings: prodrug 100 μM, 3 concentrations of cell s9
T2 sequence (P23141 18-568 isoform P23141-2 G143E limits assumed): T1 sequence (P23141 18-568 isoform P23141-2 limits assumed) with G126E

[4] = Japanese cancer patients receiving irinotecan; ref [21]; cited from earlier work
CES1 variant G143E [5] = molecular target: T2, CES1 variant G143E; settings: in vitro function study; ref [13], [15], [22], [23]; cited from earlier work
[6] = ref [24]; cited from earlier work
CES1 variant A270S = molecular target: T3, CES1 variant A270S (Homo sapiens, UniProt P23141, A269S); assay: Enalapril hydrolysis by CES1 variant A270S transfected cell s9; type: in vitro ADME; settings: enalapril 500 μM
T3 sequence (P23141 18-568 isoform P23141-2 A270S limits assumed): T1 sequence (P23141 18-568 isoform P23141-2 limits assumed) with A253S

CES1 variant S83L = molecular target: T4, CES1 variant S83L (Homo sapiens, UniProt P23141, S82L); assay: Enalapril hydrolysis by CES1 variant S83L transfected cell s9; type: in vitro ADME; settings: enalapril 500 μM
T4 sequence (P23141 18-568 isoform P23141-2 S83L limits assumed): T1 sequence (P23141 18-568 isoform P23141-2 limits assumed) with S66L

[7] = human, pH 7.4
CES1 variant G19V = molecular target: T5, CES1 variant G19V (Homo sapiens, UniProt P23141, G18V); assay: Enalapril hydrolysis by CES1 variant G19V transfected cell s9; type: in vitro ADME; settings: enalapril 500 μM
T5 sequence (P23141 18-568 isoform P23141-2 G19V limits assumed): T1 sequence (P23141 18-568 isoform P23141-2 limits assumed) with G2V

[8] = molecular target: T6, CES1 in individual human liver s9 fractions (Homo sapiens, UniProt P23141); type: in vitro ADME; settings: 143G/G livers; HLS9 0.5 mg/ml, enalapril 500 μM, 37 °C, 10 min
T6 sequence (P23141 18-567): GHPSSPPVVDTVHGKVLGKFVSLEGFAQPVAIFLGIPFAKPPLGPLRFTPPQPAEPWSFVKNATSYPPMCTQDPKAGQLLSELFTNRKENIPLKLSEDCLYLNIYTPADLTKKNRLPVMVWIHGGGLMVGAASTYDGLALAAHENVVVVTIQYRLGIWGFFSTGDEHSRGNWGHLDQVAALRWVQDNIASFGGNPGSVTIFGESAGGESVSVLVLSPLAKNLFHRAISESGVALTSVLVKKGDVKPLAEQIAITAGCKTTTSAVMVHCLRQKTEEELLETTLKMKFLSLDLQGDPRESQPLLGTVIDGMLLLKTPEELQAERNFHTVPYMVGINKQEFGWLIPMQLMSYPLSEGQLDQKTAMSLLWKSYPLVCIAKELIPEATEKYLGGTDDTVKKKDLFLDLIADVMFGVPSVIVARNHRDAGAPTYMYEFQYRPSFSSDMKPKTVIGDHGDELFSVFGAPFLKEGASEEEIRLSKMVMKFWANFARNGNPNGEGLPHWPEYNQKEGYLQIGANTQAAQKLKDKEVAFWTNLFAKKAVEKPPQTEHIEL

[9] = test system: CES1 in individual human liver s9 fractions; type: in vitro ADME; settings: for CES1 activity in the null-CES1 liver samples (some G143E non-carriers): CES1 expression comparable to pooled HLS9
[10] = ref [20]; cited from earlier work
[11] = after oseltamivir; ref [26]; cited from earlier work
[12] = human liver samples, enalapril 500 μM

CCOC(=O)[C@H](CCc1ccccc1)N[C@@H](C)C(=O)N1[C@H](C(=O)O)C[C@@H]2CCC[C@@H]21 [Ramipril, ramipril]
Hydrolysis by human intestine s9 fractions [1]: No appreciable activation
Hydrolysis by human kidney s9 fractions [2]: No appreciable activation
Vmax (Hydrolysis; unit for ACEIs other than enalapril): 18.1 ± 0.7 nmole/min/mg protein
Km (Hydrolysis): 690 ± 61.8 µM
Hydrolysis to active metabolite by human liver s9 fractions (Hydrolysis): efficiently hydrolyzed
Hydrolysis to active metabolite by WT CES1 (wild type (WT) CES1): readily hydrolyzed
Active metabolite after incubation with CES1 variant G143E (CES1 variant G143E [3]): not detected

CCc1c2c(nc3ccc(OC(=O)N4CCC(N5CCCCC5)CC4)cc13)-c1cc3c(c(=O)n1C2)COC(=O)[C@]3(O)CC [irinotecan]
median AUC ratios of metabolites SN-38 and SN-38G to parent compound, higher in CES1P1VAR heterozygous and homozygous patients vs CES1P1/CES1P1 [4]: 24%

COC(=O)C(c1ccccc1)C1CCCCN1 (stereo not drawn) [methylphenidate]
Function of the G143E variant for metabolism of the substrate (CES1 variant G143E [5]): loss-of-function

COC(=O)[C@H](c1ccccc1Cl)N1CC[C@@H](S)/C(=C\C(=O)O)C1 [clopidogrel active metabolite]
concentrations higher in patients carrying heterozygous 143E relative to 143GG [6]: approximately 60%

CCOC(=O)[C@H](CCc1ccccc1)N[C@@H](C)C(=O)N1CCC[C@H]1C(=O)O [Enalapril, Enalapril maleate]
Catalytic activity of A270S on enalapril activation vs WT CES1 (CES1 variant A270S): comparable to the WT CES1
Hydrolysis by human intestine s9 fractions [1]: No appreciable activation
Catalytic activity of S83L on enalapril activation vs WT CES1 (CES1 variant S83L): comparable to the WT CES1
Clint (Vmax/Km) [7]: 1.1 μl/min/mg protein
Catalytic activity of G19V on enalapril activation vs WT CES1 (CES1 variant G19V): comparable to the WT CES1
enalapril activation rate [8]: 55.4±37.3 pmole/min/mg protein
CES1 activity in the null-CES1 liver samples (some G143E non-carriers) [9]: null CES1 activity
CES1 activity on enalapril activation, 143G/E livers as fraction of 143G/G ([9]; human liver samples): approximately 1/3
CES1 activity on enalapril activation between CES1P1/CES1P1, CES1P1/CES1P1VAR and CES1P1VAR/CES1P1VAR genotypes [9, 12]: no significant differences
CES1 activity on enalapril hydrolysis among CES1/CES1, CES1/CES1VAR and CES1VAR/CES1VAR genotypes [9, 12]: comparable
CES1 activity on enalapril activation within the nine CES1/CES1P1 diplotypes ([9]; one way ANOVA, activity P=0.549): no significant differences
Hydrolysis by human kidney s9 fractions [2]: No appreciable activation
Vmax (Hydrolysis; unit for enalapril): 67.5 ± 1.3 pmole/min/mg protein
Km (Hydrolysis): 60.1 ± 4.2 µM
Hydrolysis to active metabolite by human liver s9 fractions (Hydrolysis): efficiently hydrolyzed

CCOC(=O)[C@H](CCc1ccccc1)N[C@@H](C)C(=O)N1[C@H](C(=O)O)C[C@H]2CCCC[C@@H]21 [trandolapril]
CES1 activity in the null-CES1 liver samples (some G143E non-carriers) [9]: inactive
Function of the G143E variant for metabolism of the substrate (CES1 variant G143E [5]): loss-of-function

COC(=O)[C@H](c1ccccc1Cl)N1CCc2sccc2C1 [clopidogrel]
Function of the G143E variant for metabolism of the substrate (CES1 variant G143E [5]): loss-of-function

CCOC(=O)C1=C[C@@H](OC(CC)CC)[C@H](NC(C)=O)[C@@H](N)C1 [oseltamivir]
Metabolism in healthy subjects with different CES1/CES1VAR genotypes [10]: not significantly different

CCC(CC)O[C@@H]1C=C(C(=O)O)C[C@H](N)[C@H]1NC(C)=O [oseltamivir carboxylate]
mean Cmax lower in 143E heterozygotes than in non-carriers [11]: 17.5%
